The numbers were not newly measured in patent US20170173276A1, “SYSTEM AND METHOD FOR DELIVERING AN ANTI-ADHESIVE SUBSTANCE TO A BODY CAVITY” (Northgate Technologies Inc., priority 2003, published 2017), which cites them from elsewhere.

The conditions of data set [1]: administration in liquid form; shown in some studies.
The conditions of data set [2]: general/typical value.

Regarding `CCCCN1CCCCC1C(=O)Nc1c(C)cccc1C` (stereo not drawn) [Bupivacaine], in data set [1], the post-operative shoulder pain result is listed as “reducing post-operative shoulder pain”.

Regarding low molecular weight heparin, in data set [2], the half life was 4 to 5 h.

Turning to unfractionated heparin, the half life in data set [2] is 1 to 2 h.
